Test results taken from the NIST ThermoML archive (doi:10.1016/j.jct.2012.03.013).

Assays:
[1] = refractive index (Na D-line) (dimensionless); settings: 298.15 K; 101.33 kPa; Liquid; Standard Abbe refractometry
[2] = Liquid; for speed of sound: Pulse-echo method
[3] = molar heat capacity at constant pressure; settings: Liquid, Acoustic Method

OCCCCO [1,4-butanediol]
Settings | refractive index
[1] | 1.4447

[2]
Settings | mass density [kg/m3]
293.15 K, 100 kPa, Acoustic method | 1015.74
293.15 K, 101.33 kPa, Vibrating tube method | 1015.74
298.15 K, 100 kPa, Acoustic method | 1012.78
298.15 K, 101.33 kPa, Vibrating tube method | 1012.78
298.15 K, 10000 kPa, Acoustic method | 1016.99
298.15 K, 20000 kPa, Acoustic method | 1021.1
298.15 K, 30000 kPa, Acoustic method | 1025.06
298.15 K, 40000 kPa, Acoustic method | 1028.89
303.14 K, 101.33 kPa, Vibrating tube method | 1009.78
303.15 K, 100 kPa, Acoustic method | 1009.77
303.15 K, 10000 kPa, Acoustic method | 1014.06
303.15 K, 20000 kPa, Acoustic method | 1018.23
303.15 K, 30000 kPa, Acoustic method | 1022.25
303.15 K, 40000 kPa, Acoustic method | 1026.13
303.15 K, 50000 kPa, Acoustic method | 1029.88
303.15 K, 60000 kPa, Acoustic method | 1033.51
303.15 K, 70000 kPa, Acoustic method | 1037.04
303.15 K, 80000 kPa, Acoustic method | 1040.47
303.15 K, 90000 kPa, Acoustic method | 1043.8
308.15 K, 100 kPa, Acoustic method | 1006.76
308.15 K, 101.33 kPa, Vibrating tube method | 1006.76
308.15 K, 10000 kPa, Acoustic method | 1011.12
308.15 K, 20000 kPa, Acoustic method | 1015.35
308.15 K, 30000 kPa, Acoustic method | 1019.42
308.15 K, 40000 kPa, Acoustic method | 1023.35
308.15 K, 50000 kPa, Acoustic method | 1027.15
308.15 K, 60000 kPa, Acoustic method | 1030.83
308.15 K, 70000 kPa, Acoustic method | 1034.41
308.15 K, 80000 kPa, Acoustic method | 1037.87
308.15 K, 90000 kPa, Acoustic method | 1041.25
308.15 K, 100000 kPa, Acoustic method | 1044.53
313.14 K, 101.33 kPa, Vibrating tube method | 1003.72
313.15 K, 100 kPa, Acoustic method | 1003.73
313.15 K, 10000 kPa, Acoustic method | 1008.15
313.15 K, 20000 kPa, Acoustic method | 1012.44
313.15 K, 30000 kPa, Acoustic method | 1016.57
313.15 K, 40000 kPa, Acoustic method | 1020.56
313.15 K, 50000 kPa, Acoustic method | 1024.41
313.15 K, 60000 kPa, Acoustic method | 1028.14
313.15 K, 70000 kPa, Acoustic method | 1031.76
313.15 K, 80000 kPa, Acoustic method | 1035.27
313.15 K, 90000 kPa, Acoustic method | 1038.68
313.15 K, 100000 kPa, Acoustic method | 1042
318.15 K, 100 kPa, Acoustic method | 1000.67
318.15 K, 101.33 kPa, Vibrating tube method | 1000.67
318.15 K, 10000 kPa, Acoustic method | 1005.17
318.15 K, 20000 kPa, Acoustic method | 1009.52
318.15 K, 30000 kPa, Acoustic method | 1013.71
318.15 K, 40000 kPa, Acoustic method | 1017.75
318.15 K, 50000 kPa, Acoustic method | 1021.65
318.15 K, 60000 kPa, Acoustic method | 1025.43
318.15 K, 70000 kPa, Acoustic method | 1029.09
318.15 K, 80000 kPa, Acoustic method | 1032.64
318.15 K, 90000 kPa, Acoustic method | 1036.09
318.15 K, 100000 kPa, Acoustic method | 1039.45
323.15 K, 101.33 kPa, Vibrating tube method | 997.61
328.15 K, 101.33 kPa, Vibrating tube method | 994.53
333.15 K, 101.33 kPa, Vibrating tube method | 991.44
338.15 K, 101.33 kPa, Vibrating tube method | 988.31
343.14 K, 101.33 kPa, Vibrating tube method | 985.17
348.15 K, 101.33 kPa, Vibrating tube method | 982.01
353.15 K, 101.33 kPa, Vibrating tube method | 978.82

Settings | molar heat capacity at constant pressure [J/K/mol] | speed of sound [m/s]
[2], 298.07 K, 15200 kPa | – | 1649.2
[2], 298.07 K, 30390 kPa | – | 1693.3
[2], 298.08 K, 45590 kPa | – | 1735.4
[2], 298.11 K, 100 kPa | – | 1602.1
[2], 298.15 K, 101.33 kPa | – | 1601.8
[2], 303.15 K, 101.33 kPa | – | 1589.9
[2], 303.15 K, 60790 kPa | – | 1763.6
[2], 303.15 K, 70920 kPa | – | 1789.3
[2], 303.15 K, 75990 kPa | – | 1801.9
[2], 303.15 K, 91180 kPa | – | 1837.8
[2], 303.16 K, 30390 kPa | – | 1682.4
[2], 303.16 K, 45590 kPa | – | 1724.1
[2], 303.16 K, 50660 kPa | – | 1738
[2], 303.17 K, 100 kPa | – | 1590.2
[2], 303.17 K, 15200 kPa | – | 1637.6
[2], 308.14 K, 15200 kPa | – | 1626.6
[2], 308.14 K, 30390 kPa | – | 1671.6
[2], 308.14 K, 45590 kPa | – | 1713.7
[2], 308.14 K, 75990 kPa | – | 1792
[2], 308.14 K, 91180 kPa | – | 1828.2
[2], 308.14 K, 101320 kPa | – | 1851.7
[2], 308.15 K, 100 kPa | – | 1578.4
[2], 308.15 K, 101.33 kPa | – | 1578.5
[2], 308.15 K, 60790 kPa | – | 1753.3
[2], 313.09 K, 15200 kPa | – | 1614.6
[2], 313.09 K, 30390 kPa | – | 1660.5
[2], 313.1 K, 45590 kPa | – | 1703
[2], 313.1 K, 60790 kPa | – | 1743.5
[2], 313.1 K, 75990 kPa | – | 1782
[2], 313.1 K, 91180 kPa | – | 1819
[2], 313.1 K, 101320 kPa | – | 1842.1
[2], 313.12 K, 100 kPa | – | 1567
[2], 313.15 K, 101.33 kPa | – | 1566.7
[2], 318.15 K, 101.33 kPa | – | 1555.2
[2], 318.17 K, 30390 kPa | – | 1649.8
[2], 318.17 K, 45590 kPa | – | 1692.6
[2], 318.17 K, 60790 kPa | – | 1733.4
[2], 318.17 K, 75990 kPa | – | 1772
[2], 318.18 K, 15200 kPa | – | 1603.3
[2], 318.18 K, 91180 kPa | – | 1809.4
[2], 318.18 K, 101320 kPa | – | 1832.7
[2], 318.2 K, 100 kPa | – | 1555.3
[3], 298.15 K, 10000 kPa | 202.7 | –
[3], 298.15 K, 20000 kPa | 202.4 | –
[3], 298.15 K, 30000 kPa | 202 | –
[3], 298.15 K, 40000 kPa | 201.7 | –
[3], 303.15 K, 10000 kPa | 205.5 | –
[3], 303.15 K, 20000 kPa | 205.1 | –
[3], 303.15 K, 30000 kPa | 204.7 | –
[3], 303.15 K, 40000 kPa | 204.4 | –
[3], 303.15 K, 50000 kPa | 204.1 | –
[3], 303.15 K, 60000 kPa | 203.8 | –
[3], 303.15 K, 70000 kPa | 203.5 | –
[3], 303.15 K, 80000 kPa | 203.2 | –
[3], 303.15 K, 90000 kPa | 202.9 | –
[3], 308.15 K, 10000 kPa | 208.3 | –
[3], 308.15 K, 20000 kPa | 207.9 | –
[3], 308.15 K, 30000 kPa | 207.6 | –
[3], 308.15 K, 40000 kPa | 207.2 | –
[3], 308.15 K, 50000 kPa | 206.9 | –
[3], 308.15 K, 60000 kPa | 206.6 | –
[3], 308.15 K, 70000 kPa | 206.3 | –
[3], 308.15 K, 80000 kPa | 206 | –
[3], 308.15 K, 90000 kPa | 205.7 | –
[3], 308.15 K, 100000 kPa | 205.4 | –
[3], 313.15 K, 10000 kPa | 211.2 | –
[3], 313.15 K, 20000 kPa | 210.8 | –
[3], 313.15 K, 30000 kPa | 210.4 | –
[3], 313.15 K, 40000 kPa | 210.1 | –
[3], 313.15 K, 50000 kPa | 209.7 | –
[3], 313.15 K, 60000 kPa | 209.4 | –
[3], 313.15 K, 70000 kPa | 209.1 | –
[3], 313.15 K, 80000 kPa | 208.8 | –
[3], 313.15 K, 90000 kPa | 208.5 | –
[3], 313.15 K, 100000 kPa | 208.2 | –
[3], 318.15 K, 10000 kPa | 214.2 | –
[3], 318.15 K, 20000 kPa | 213.8 | –
[3], 318.15 K, 30000 kPa | 213.4 | –
[3], 318.15 K, 40000 kPa | 213 | –
[3], 318.15 K, 50000 kPa | 212.7 | –
[3], 318.15 K, 60000 kPa | 212.3 | –
[3], 318.15 K, 70000 kPa | 212 | –
[3], 318.15 K, 80000 kPa | 211.7 | –
[3], 318.15 K, 90000 kPa | 211.4 | –
[3], 318.15 K, 100000 kPa | 211.1 | –
